This is an account of results in patent publication US10815200B2, “18F—tagged inhibitors of prostate specific membrane antigen (PSMA) and their use as imaging agents for prostate cancer” (DEUTSCHES KREBSFORSCHUNGSZENTRUM, priority 2015, dated 2020).

One data set concerns LNCaP cells. Nature of the data set: Specific cell uptake and internalization in LNCaP cells. The format is cell-based, human. The settings on record: for Cell surface / Internalised: 30 nM radiolabeled compound, 45 min, 37° C., specific (PMPA block); for Internalized fraction: (Internalized activity/total activity)*100. As to the method: During cell culture, cells were grown at 37° C. in an incubator with humidified air, equilibrated with 5% CO2. […] To determine the specific cell uptake and internalization, 10^5 cells were seeded in poly-L-lysine coated 24-well cell culture plates 24 h before incubation. After washing, the cells were incubated with 30 nM of the radiolabeled compounds for 45 min at 37° C. […] Cellular uptake was terminated by washing 3 times with 1 mL of ice-cold PBS. […] The cells were washed with 1 mL of ice-cold PBS and lysed using 0.3 N NaOH (0.5 mL). The surface-bound and the internalized fractions were measured in a gamma counter. The cell uptake was calculated as percent of the initially added radioactivity bound to 10^5 cells [% ID/10^5 cells].

The test system of data set [1] is LNCaP tumor (PSMA positive). The class given is in vivo, mice. How it is done: (§1) For in vivo experiments, 8 week old BALB/c nu/nu mice were subcutaneously inoculated into the right trunk with 5×10^6 LNCaP- or PC3-cells in 50% Matrigel. When the size of tumor was approximately 1 cm^3, the radiolabeled compound was injected via the tail vein (ca. 30 MBq, 60 pmol for μPET imaging; ca. 1 MBq, 60 pmol for organ distribution).
(§2) The F-18 labeled compounds were injected via tail vein (1-2 MBq per mouse; 60 pmol). At 1 h after injection, the animals were sacrificed. Organs of interest were dissected, blotted dry, and weighed. The radioactivity was measured with a gamma counter (Packard Cobra II, GMI, Minnesota, USA) and calculated as % ID/g.

The test system of data set [2] is PC3-tumor (PSMA negative). Nature of the data set: Organ distribution in mice carrying a PC3-tumor (PSMA negative). The class given is in vivo. How it is done:
as §1, §2

A further data set concerns LNCaP tumor xenografts. Nature of the data set: MicroPET in mice bearing LNCaP tumor xenografts. The settings on record: 120-140 min p.i. The format is in vivo. How it is done: For the microPET studies, 10-25 MBq of the radiolabeled compounds in a volume of 0.10 ml (60 pmol) were injected via a lateral tail vein into mice bearing LNCaP tumor xenografts. The anesthetized animals (2% sevoflurane, Abbott, Wiesbaden, Germany) were placed in prone position into the Inveon small animal PET scanner (Siemens, Knoxville, Tenn., USA) to perform dynamic microPET scans.
as §1

Data set [3] in a line: PET/CT dosimetry and kinetics in a healthy volunteer. The class given is in vivo, human. As to the method: The healthy subject was injected a total activity of 300 MBq and subsequently PET scans were performed on a Biograph mCT Flow scanner (Siemens, Erlangen, Germany) in three blocks. Block 1 contained PET-1 (start 5 min p.i.) to PET-7 (ending 140 min p.i.), block 2 contained PET-8 (start 180 min p.i.) and PET-9 (240-270 min p.i.), block 3 contained PET-10 (440-480 min p.i.). A non-enhanced low-dose CT (estimate 1.43 mSv, respectively) for attenuation correction was performed at the beginning of each block, followed by serial emission scans without moving the volunteer in between.
Kidneys, liver, spleen, whole heart, upper and lower large intestine, parotid glands, submandibular glands and urinary bladder were segmented into volumes of interest (VOIs) using a percentage of maximum threshold between 20% and 30% using the corresponding CT as guidance and then time activity curves (TACs) were calculated for all organs. The TAC for red marrow was derived from the venous blood samples and then the dose for the red marrow calculated (S. Shen et al., JNM 2002, 43, 1245-1253; G. Sgouros et al., JNM 1993, 34, 689-694.). The TAC for the urinary bladder content was a combination of estimated activity in the urinary bladder VOI in PET and activity measured in the voided urine. Curve fitting was applied to all TACs. Kidneys, salivary glands, upper and lower large intestine and heart were fitted with a bi-exponential function. For liver, spleen and urinary bladder content a mono-exponential fit to the last three time points was performed.
Absorbed and effective dose calculations were performed using the ICRP endorsed IDAC 1.0 package which is integrated in QDOSE. Additionally, residence times of all included source organs and remainder body were exported as an OLINDA case file for dose calculation (OLINDA 1.1). The absorbed doses to the salivary glands (parotid and submandibular glands) were determined using the spherical model. The organ masses for the salivary glands were estimated with 25 g for a parotid and 12.5 g for a submandibular gland (ICRP publication 89).

A further data set has as its system prostate cancer. Description: First-in-man PET study in patients suffering from prostate cancer, with histopathology correlation. The format is in vivo, human. As to the method:
Ten patients (age 60-80 years) suffering from a newly diagnosed high-risk prostate cancer with a gleason score of 7-9 and initial PSA levels of 5-90 ng/ml were injected 100-360 MBq [^18F]-PSMA-1007 and subsequently PET scans were performed on a Biograph mCT Flow scanner (Siemens, Erlangen, Germany) at 1 and 3 h p.i. The results are depicted in FIGS. 17 and 18 as mean values of the SUVmean and SUVmax, respectively. The pictures gained with the PET scans are exemplified in FIGS. 19 and 20 as maximum intensity projections.
Eight of the patients underwent radical prostatectomy with extended pelvic lymphadenectomy. Analyses of prostatectomy specimen were performed blinded to PET-data under the supervision of dedicated uropathologists, according to International Society of Urological Pathology standards (T. H. van der Kwast et al. Mod. Phathol. 2011, 24, 16-25). Representative sections were stained by immunohistochemistry. The sections were deparaffinized in xylene and rehydrated in a graded ethanol series. Antigen retrieval was performed with a steam cooker using retrieval buffer (Target Retrieval Solution, Dako). A mouse monoclonal antibody against PSMA (clone 3E6, Dako) was used at a 1:100 dilution and incubated overnight at 4° C. ad subsequently immunodetection was performed using the Histostain-Plus detection kit (Invitrogen). Stained sections were scanned using a Nanozoomer 2.0-HT Scansystem (Hamamatsu Photonics) to generate digital whole slide images.

In the next data set the target is T1, PSMA (Homo sapiens, UniProt Q04609).
T1 construct: host or cells: LNCaP cells
T1 sequence (Q04609 whole entry): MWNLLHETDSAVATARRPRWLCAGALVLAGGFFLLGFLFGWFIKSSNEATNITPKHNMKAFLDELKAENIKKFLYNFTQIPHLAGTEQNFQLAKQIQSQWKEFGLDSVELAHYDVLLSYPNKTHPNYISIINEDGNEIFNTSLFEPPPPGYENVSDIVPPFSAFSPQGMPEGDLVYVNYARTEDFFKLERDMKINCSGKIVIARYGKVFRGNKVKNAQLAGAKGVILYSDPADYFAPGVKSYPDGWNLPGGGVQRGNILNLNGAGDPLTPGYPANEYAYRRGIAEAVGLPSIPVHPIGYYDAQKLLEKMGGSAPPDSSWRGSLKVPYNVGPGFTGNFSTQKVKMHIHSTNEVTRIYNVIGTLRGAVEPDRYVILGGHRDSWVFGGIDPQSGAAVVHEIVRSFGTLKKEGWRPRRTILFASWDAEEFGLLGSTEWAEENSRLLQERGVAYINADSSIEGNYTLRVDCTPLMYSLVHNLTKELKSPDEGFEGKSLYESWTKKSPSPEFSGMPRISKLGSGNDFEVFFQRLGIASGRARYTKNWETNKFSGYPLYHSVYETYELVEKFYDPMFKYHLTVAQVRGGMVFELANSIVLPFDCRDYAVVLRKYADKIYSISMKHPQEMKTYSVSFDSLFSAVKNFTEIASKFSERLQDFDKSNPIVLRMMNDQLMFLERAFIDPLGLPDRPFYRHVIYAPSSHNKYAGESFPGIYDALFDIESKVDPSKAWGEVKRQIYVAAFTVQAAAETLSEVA
Nature of the data set: Competitive cell binding assay (binding affinity) on LNCaP cells against 68Ga-labeled [Glu-urea-Lys(Ahx)]2-HBED-CC. The settings on record: competition with 68Ga-labeled [Glu-urea-Lys(Ahx)]2-HBED-CC, non-radioactive reference compounds. How it is done:
For binding studies and in vivo experiments LNCaP cells (metastatic lesion of human prostatic adenocarcinoma, ATCC CRL-1740) were cultured in RPMI medium supplemented with 10% fetal calf serum and Glutamax (PAA, Austria). During cell culture, cells were grown at 37° C. in an incubator with humidified air, equilibrated with 5% CO2. The cells were harvested using trypsin-ethylenediaminetetraacetic acid (trypsin-1.5 EDTA; 0.25% trypsin, 0.02% EDTA, all from PAA, Austria) and washed with PBS.
The competitive cell binding assay and internalization experiments were performed as described previously (Eder et al. Bioconjugate Chem. 2012, 23 (4), 688-697). Briefly, the respective cells (10^5 per well) were incubated with the radioligand (^68Ga-labeled [Glu-urea-Lys(Ahx)]2-HBED-CC (Schafer et al. EJNMMI Research 2012, 2:23 doi:10.1186/2191-219X-2-23))) in the presence of 12 different concentrations of analyte (0-5000 nM, 100 μL/well). After incubation, washing was carried out using a multiscreen vacuum manifold (Millipore, Billerica, Mass.). Cell-bound radioactivity was measured using a gamma counter (Packard Cobra II, GMI, Minnesota, USA). The 50% inhibitory concentration (IC50) was calculated by fitting the data using a nonlinear regression algorithm (GraphPad Software). Experiments were performed three times. Reference is made to Table A below.

As to `O=C(O)CCC(NC(=O)NC(CCCCNC(=O)C(Cc1ccc2ccccc2c1)NC(=O)c1ccc(CNC(=O)C(CCC(=O)O)NC(=O)C(CCC(=O)O)NC(=O)c2ccc([18F])nc2)cc1)C(=O)O)C(=O)O` (stereo not drawn) [PSMA-1007, (Glu)-(Urea)-(Lys)-(2-Nal)-(Bn)-(Glu)-(Glu)-FN], in the data set with LNCaP cells, the Cell surface was 2.7 % ID/10^5 cells, the Internalised came out at 6.5 % ID/10^5 cells and the Internalized fraction is reported as 71%. In addition, in data set [1] (LNCaP tumor mice with PMPA block), the “blocking of tumor binding in the blocking experiment” value is given as “a quantitative blocking of the binding was not observed”. Further, in data set [1] (LNCaP tumor mice, 1 h after injection, non-blocked), the tumor uptake entry is “about 8.0±2.4 % ID/g”. Also, the “uptake in non-target tissue such as the liver and the small intestine” value in data set [1] (mouse, in vivo) is on record as “significantly reduced uptake”. The tumor uptake entry in data set [2] is given as “practically no tumor uptake was observed”. The “SUVmax of LNCaP tumor” value in the data set with LNCaP tumor xenografts is reported as 3.1. For the same compound, the “effective dose of a PET/CT scan” value in data set [3] (200-250 MBq, healthy volunteer) is reported as 4.3-5.4 mSv. Also, in data set [3] (healthy volunteer), the “blood pool activity found in the serum” value is on record as “More than 95%” and the effective dose per injected activity was found to be 0.0215 mSv/MBq. Further, in data set [3] (in comparison to other known PSMA-tracers), the clearance pathway result is on record as “very unique hepatobiliary clearance with very small clearance via the renal pathway”. In addition, the “clearance from the blood pool” value in data set [3] (within the first 3 h after injection, healthy volunteer) is “more than 90%”. For the same compound, in the data set on prostate cancer, the “correlation of prostatectomy histopathology with PET images” value was “nearly perfect correlation”, the “diameter of detected lymph node metastases” value is on record as at least 1 mm and the “specificity (correlation with pelvic lymphadenectomy samples)” value turned out to be 95%. In addition, the “tumor-to-background ratios in the primary tumor” value with prostate cancer (calculated from SUVmax) is recorded as “up to 10”.

For the compound `O=C(O)CCC(NC(=O)NC(CCCCNC(=O)C(Cc1ccc2ccccc2c1)NC(=O)CCC(NC(=O)C(CCC(=O)O)NC(=O)C(CCC(=O)O)NC(=O)c1ccc(F)nc1)C(=O)O)C(=O)O)C(=O)O` (stereo not drawn) [PSMA-1020, (Glu)-(Urea)-(Lys)-(2-Nal)-(γGlu)-(Glu)-(Glu)-FN], at PSMA, the IC50 – broadly, the midpoint of a concentration-inhibition curve – was 9 nM.

Turning to `O=C(O)CCC(NC(=O)NC(CCCCNC(=O)C(Cc1ccc2ccccc2c1)NC(=O)CCC(NC(=O)CCC(NC(=O)c1ccc(F)nc1)C(=O)O)C(=O)O)C(=O)O)C(=O)O` (stereo not drawn) [PSMA-1022, (Glu)-(Urea)-(Lys)-(2-Nal)-(γGlu)-(γGlu)-FN], the IC50 at PSMA amounted to 8 nM.

`O=C(O)CCC(NC(=O)NC(CCCCNC(=O)C(Cc1ccc2ccccc2c1)NC(=O)c1ccc(CNC(=O)C(CCC(=O)O)NC(=O)C(CCC(=O)O)NC(=O)c2ccc(F)nc2)cc1)C(=O)O)C(=O)O` [PSMA-1023, (Glu)-(Urea)-(Lys)-(2-Nal)-(Bn)-(D-Glu)-(D-Glu)-FN]: the IC50 at PSMA turned out to be 8 nM.

As to `O=C(O)CCC(NC(=O)NC(CCCCNC(=O)C(Cc1ccc2ccccc2c1)NC(=O)c1ccc(CNC(=O)C(CCC(=O)O)NC(=O)C(CCC(=O)O)NC(=O)c2ccc(F)nc2)cc1)C(=O)O)C(=O)O` [PSMA-1024, (Glu)-(Urea)-(Lys)-(2-Nal)-(Bn)-(D-Glu)-(Glu)-FN], the IC50 at PSMA was found to be 8 nM.

Turning to `O=C(O)CCC(NC(=O)NC(CCCCNC(=O)C(Cc1ccc2ccccc2c1)NC(=O)c1ccc(CNC(=O)C(CNC(=O)c2ccc(F)nc2)S(=O)(=O)O)cc1)C(=O)O)C(=O)O` (stereo not drawn) [PSMA-1026, (Glu)-(Urea)-(Lys)-(2-Nal)-(Bn)-(Sala)-FN], the IC50 on PSMA amounted to 14 nM.

In the case of `O=C(O)CCC(NC(=O)NC(CCCCNC(=O)C(Cc1ccc2ccccc2c1)NC(=O)c1ccc(CNC(=O)C(CNC(=O)C(CNC(=O)c2ccc(F)nc2)S(=O)(=O)O)S(=O)(=O)O)cc1)C(=O)O)C(=O)O` (stereo not drawn) [PSMA-1027, (Glu)-(Urea)-(Lys)-(2-Nal)-(Bn)-(Sala)-(Sala)-FN], at PSMA, the IC50 is 7 nM.

For the compound “(Glu)-(Urea)-(Lys)-(2-Nal)-(Bn)-(Gla)-FN [PSMA-1025]”, the IC50 on PSMA amounted to 9 nM. Also, in the data set on LNCaP cells, the Cell surface stood at 4.3 % ID/10^5 cells, the Internalised came out at 3.1 % ID/10^5 cells and the Internalized fraction came to 42%.
